Where a name gives a salt, the structure may show the parent alone.

One series can be described thus: physchem.
Conditions: not given
The compound `COC(=O)c1ccc(O)cc1` [FA9, Methyl-4-hydroxybenzoate sodium salt, reference compound] displayed a logP of -1.34.

Consider `OCCOc1ccccc1` [FA6, 2-phenoxyethanol], for which the logP was found to be 1.1. The same measure, in the same setting: under `CC(O)CCO` (stereo not shown) [FA1, 1,3-butanediol] stands -0.29; under `OCCO` [FA8, Ethylene glycol, reference compound], -1.2; under `OCCOCCO` [FA10, 2,2′-oxydiethanol, reference compound], -1.47.

Staying with this series, now noted: octanol/water.
Take `CCCCC(CC)CO` (stereo not shown) [FA7, 2-ethyl-1-hexanol]: the logP is 2.73. On the same count and under the same terms, the value for `OCCCCCCO` [FA5, 1,6-hexanediol] was 0.76; that for `OCCCCCO` [FA3, 1,5-pentanediol] was 0.27; that for `CCCCC(O)CO` (stereo not shown) [FA4, 1,2-hexanediol] was 0.69.

The next series is described as follows: Log P (octanol-water partition coefficient) of flexibilizer agents.
Conditions: not given
Take 2,3-dimethylpropanediol [FA2]: the “Log P” value is recorded as 0.13.

By logP is commonly meant the decadic logarithm of the partition coefficient of the neutral form, usually between octanol and water. Higher therefore signals a more lipophilic compound. One may read the Log P as the decadic logarithm of the partition coefficient of the neutral form, usually between octanol and water. Low values mean a more hydrophilic compound, high ones a more lipophilic compound.

These data come from patent publication US6645690B2, “Photographic member with flexibilizer material” (Eastman Kodak Company, priority 2001, dated 2003).
